Entries after “also recorded” stand apart in the source; their conditions may differ.
Legend:
anaesthetized rat [1] = experiment: LPS-induced hypotension and mortality in the anaesthetized rat; format: in vivo, Male Sprague Dawley rats
Method: (§1) Anaesthetized Rat Model. Male Sprague Dawley rats (250-300 g) were anaesthetized with inactin (100 mg/Kg intraperitoneally). The trachea was cannulated to facilitate respiration and body temperature was maintained at 37° C. by means of a heating pad. The left femoral vein was cannulated for administration of drugs. The left femoral artery was cannulated and connected to a pressure transducer to allow for the monitoring of blood pressure. Lipopolysaccharide from E. coli (LPS; 4 mg/Kg, serotype 0111:B4) was administered as a bolus intravenous injection at a volume of 0.3 ml. Control animals received saline at the same volume and by the same route. In experiments involving blood samples, such blood samples were withdrawn from the arterial cannula.
Intravenous injection of LPS (4 mg/Kg) in rats led to a profound fall in blood pressure associated with a high mortality rate (99±5% mortality at 9 hours, n=10, FIG. 3). Furthermore, the plasma levels of norepinephrine as well as the adrenochromes increased after LPS treatment (FIGS. 4a,b,c; n=10). Levels of the catecholamines and of the adrenochromes could not be evaluated at the 9 h timepoint (survival rate at this point was 1%, n=10).
(FIG. 3; n=10). Inhibition of hypotension by M40403 was associated with increased levels of catecholamines (FIGS. 4a and b) and concommittant decrease (FIG. 4c; n=10) in plasma levels of the adrenochromes, the reaction products of O2^− and these catecholamines. In addition, when the administration of M40403 was postponed until 5 hours post LPS in this model the severe hypotensive phase of this condition was reversed (FIG. 3; n=10).
When 15 mg/Kg of 5,10,15,20-tetrakis (2,4,6-trimethyl-3,5-disulfonatophenyl)-porphyrinato iron (III) (FeTMPS) was administered (i.v bolus injection 1 hour after LPS), the development of hypotension was prevented.

anaesthetized rat [2] = experiment: LPS-induced hyporeactivity to exogenous norepinephrine in the anaesthetized rat; format: in vivo, Male Sprague Dawley rats
Method: as §1
Injection of E. coli lipopolysaccharide (LPS) to rats leads to the development of hyporeactivity to exogeneously administered norepinephrine which typically occurs in the first two hours. Male Sprague Dawley rats (250-300 g, number in group) were anaesthetized and prepared according to the methods of Example 1. Increasing dosages of norepinephrine (0.1, 0.5 and 1 mg/Kg) were given as intravenous bolus injections. Animals in a control group received saline at the same volume and by the same route. The left femoral artery was cannulated and connected to a pressure transducer to allow for the monitoring of blood pressure during the experiment. The change in the blood pressure of the animals was compared to the blood pressure of animals in the control group. […] Pressor responses to norepinephrine in rats not treated with LPS were unaffected by the SOD mimetic M40403 (FIG. 2; n=6).
Injection of E. coli lipopolysaccharide (LPS) to rats leads to the development of hyporeactivity to exogeneously administered norepinephrine which typically occurs in the first two hours. Male Sprague Dawley rats (250-300 g, number in group) were anaesthetised and prepared according to the methods of Example 1. Increasing dosages of norepinephrine (0.1, 0.5 and 1 mg/Kg) were given as intravenous bolus injections. Animals in a control group received saline at the same volume and by the same route. The left femoral artery was cannulated and connected to a pressure transducer to allow for the monitoring of blood pressure during the experiment. The change in the blood pressure of the animals was compared to the blood pressure of animals in the control group.

anaesthetized rat [3] = experiment: Pressor effect of norepinephrine incubates on MAP in the anaesthetized rat; format: in vivo, Male Sprague Dawley rats; settings: n=6
Method: as §1
Male Sprague Dawley rats (250-300 g, 6 rats per group) were anaesthetized and prepared according to the methods of Example 1. 0.5 mg/Kg of norepinephrine was administered as an intravenous (i.v) bolus injection through the left femoral vein. Animals in a control group received saline at the same volume and by the same route. The left femoral artery was cannulated and connected to a pressure transducer to allow for the monitoring of blood pressure during the experiment. The change in the blood pressure of the animals was compared to the blood pressure of animals in the control group. The results of the tests can be found in FIG. 1. Norepinephrine raised the MAP of the rats by 34±3.7 mmHg (FIG. 1b; n=6). […] When SOD mimetic M40403 was included with HX/XO in the incubation mixture, the vasopressor actions of were protected as shown by its ability to restore MAP back to near control values (38±3.6 mmHg) (FIG. 1b; n=6).

[4] = Plasma catecholamine and adrenochrome concentrations after LPS; format: in vivo, Male Sprague Dawley rats; settings: M40403 0.25 mg/Kg/h given at 1 h post LPS 4 mg/Kg i.v.; n=10
Method: as §1, with “In experiments involving blood samples, such blood samples were withdrawn from the arterial cannula.” left out
Catecholamine measurements. Catecholamines in test tube samples or plasma samples were identified and quantified by high pressure liquid chromatography with electrochemical detection (HPLC-EC). […] The HPLC system is coupled to a PS-90 computer with which chromatograms were recorded and analyzed with Varian Star workstation software.
Adrenochrome measurements. The detection and quantification of the sum of the noradrenochrome and adrenochrome was carried out using an HPLC method utilising a Vydac C18 Pharmaceutical 4.6×250 mm column and with a 5% acetonitrile+95% SDS (10 mM) mobile phase (5 min elution), then 40% acetonitrile with 60% SDS plus 0.1% TFA (5 min elution) mobile phase, all eluted at […]. […]

[5] = tested on: O2− generated by hypoxanthine/xanthine oxidase (HX/XO); experiment: Deactivation of catecholamines by hypoxanthine/xanthine oxidase superoxide generating system, HPLC detection; format: biochemical; settings: HX 2 mM / XO 1 U/ml, n=6; for chemical detection of the catecholamines by HPLC after exposure to HX/XO: no SOD mimetic
Method: Catecholamine measurements. Catecholamines in test tube samples or plasma samples were identified and quantified by high pressure liquid chromatography with electrochemical detection (HPLC-EC). The system consists of a Varian model 2510 solvent delivery system and a model 9090 autosampler (Varian, Walnut Creek, Calif.) coupled to a C18 column and an ESA Coulochem II detector. Separations were performed isocratically using a filtered and degassed mobile phase consisting of 10% methanol, 0.1 M sodium phosphate, 0.2 mM sodium octyl sulfate and 0.1 mM EDTA, adjusted to pH 2.8 with phosphoric acid. The HPLC system is coupled to a PS-90 computer with which chromatograms were recorded and analyzed with Varian Star workstation software.
Hypoxanthine (HX;2 mM)/xanthine oxidase (XO; 1 U/ml) results in the generation of O2^− in the ratio of 2 molecules of O2^− to every one molecule of HX used.

## 5,10,15,20-tetrakis (2,4,6-trimethyl-3,5-disulfonatophenyl)-porphyrinato iron (III) [FeTMPS]
Anaesthetized rat [1]; FeTMPS 10 mg/Kg/h at 1 h post LPS 4 mg/Kg i.v. (FIG. 7)
  fall in MAP after LPS, therapeutic treatment: prevents
Anaesthetized rat [1]; FeTMPS 10 mg/Kg/h at 1 h post LPS 4 mg/Kg i.v. (FIG. 8)
  fall in MAP after LPS, prophylactic treatment: prevents
Anaesthetized rat [1]; FeTMPS 15 mg/Kg i.v. bolus injection 1 hour after LPS
  development of hypotension after LPS: prevented
Anaesthetized rat [2]; FeTMPS 15 mg/kg given at 1 h post LPS 4 mg/Kg
  hyporeactivity to exogenous norepinephrine after LPS: prevented; also recorded: reversed
Anaesthetized rat [2]; FeTMPS, saline treated rats, n=6
  reactivity to norepinephrine in saline treated rats: not significantly affected

## [Cl-].[Cl-].[Mn+2].c1cc2nc(c1)CN[C@@H]1CCCC[C@H]1NCCN[C@@H]1CCCC[C@H]1NC2 [M40403]
Anaesthetized rat [3]; M40403 in the incubate, incubation 5 min, norepinephrine 0.5 mg/Kg bolus i.v.
  ability of norepinephrine to increase MAP after incubation with HX/XO: preserved
Anaesthetized rat [3]; norepinephrine 0.5 mg/Kg i.v. bolus, M40403 included in HX/XO incubation mixture
  increase in MAP by norepinephrine incubated with HX/XO plus M40403: 38±3.6 mmHg
Anaesthetized rat [1]; M40403 0.25 mg/Kg administered at 5 h post LPS 4 mg/Kg i.v., n=10
  fall in MAP (severe hypotensive phase) after LPS: reverses
Anaesthetized rat [1]; M40403 0.25 mg/Kg/h i.v. infusion 1 hour post LPS 4 mg/Kg, n=10
  survival by 9 h: 99±2%
Anaesthetized rat [1]; M40403 0.25 mg/Kg/h i.v. infusion from 1 h post LPS 4 mg/Kg i.v., n=10
  fall in MAP (development of hypotension) after LPS: prevents
Anaesthetized rat [2]; M40403 0.25 mg/Kg, 15 min i.v. infusion 1 hour after LPS 4 mg/Kg, norepinephrine 0.1, 0.5 and 1 mg/Kg
  pressor responses to norepinephrine two hours after LPS: restored
Anaesthetized rat [2]; M40403 1 mg/Kg, LPS 4 mg/Kg, norepinephrine 0.1-1 mg/Kg, n=6
  hyporeactivity to norepinephrine after LPS: reversed
Anaesthetized rat [2]; saline treated rats, M40403, n=6
  reactivity (pressor responses) to norepinephrine in rats not treated with LPS: unaffected; also recorded: not affected
[4]
  plasma concentrations of adrenochromes versus LPS alone: decrease; also recorded: significantly lower
  plasma concentrations of epinephrine and norepinephrine versus LPS alone: increased; also recorded: significantly higher
[5]; M40403 10^−6 M, incubation 5 min
  reduction of chemical detection (HPLC) of norepinephrine and epinephrine after incubation with HX/XO: prevented

## CNC[C@H](O)c1ccc(O)c(O)c1 [epinephrine]
[5]
  chemical detection of the catecholamines by HPLC after exposure to HX/XO: significant decreases

## NC[C@H](O)c1ccc(O)c(O)c1 [norepinephrine, reference compound]
Anaesthetized rat [3]; norepinephrine 0.5 mg/Kg i.v. bolus, incubated with HX/XO
  increase in MAP by norepinephrine after incubation with HX/XO: 17±2.5 mmHg
Anaesthetized rat [3]; norepinephrine 0.5 mg/Kg i.v. bolus, not incubated
  increase in MAP by norepinephrine: 34±3.7 mmHg
[5]
  chemical detection of the catecholamines by HPLC after exposure to HX/XO: significant decreases
